Data set [1] relates to human breast cancer MDA-MB-231 cell line. As to the kind of experiment: AlamarBlue cytotoxicity, BPBPA series, MDA-MB-231. Type of data set: cell-based. The note with it: for pIC50: Homo sapiens. As for the experimental part:
Cell culture methods. MCF-7, MDA-MB-231, and hFOB 1.19 cell lines were incubated employing DMEM (37° C.) and DMEM: F12 (34° C.) medium, respectively, in a 5% CO2. Cell lines were supplemented using 10% FBS and 1% Pen-Strep and medium exchange was performed twice a week. Cell passages were carried out at 80% confluency.
Cell-based assays. Cell lines were seeded in 96 well plates at a density of 5×10^3 cells/mL, cells were incubated for 24 h before treatment. Both cell lines were treated with 100 μL of BPBPA (0-400 μM), LET (0-200 μM), unloaded and loaded nano-Ca@BPBPA (0-50 μM). All cell-based assays were performed for 24, 48, and 72 h of treatment. Control groups were treated with media (DMEM or DMEM: F12) supplemented with 1% Pen-Strep. Then, the media was removed and replaced with 100 μL of 10% AlamarBlue® solution. The 96 well plates were incubated for 4 h before measurements. Then, the fluorescence was assessed at 560 nm of excitation and λmax 590 nm of emission. The cell viability (%) was evaluated by contrasting the percentage of live cells of the control groups with the cells treated with BPBPA, LET, unloaded and loaded nano-Ca@BPBPA. The half-maximal inhibitory concentration (IC50) was determined for BPBPA and letrozole employing the dose-response curves (% cell live vs. concentration). The relative cell live (% RCL) was assessed for the unloaded and loaded nano-Ca@BPBPA, utilizing LET as a control group. The IC50 and % RCL were plotted using the GraphPad Prism software vs. 9.3.0.
The cytotoxicity of BPBPA (control), LET (control), nano-Ca@BPBPA (control), and drug-loaded nano-Ca@BPBPA (experimental) was investigated employing the human breast cancer, MCF-7 and MDA-MB-231, and the human osteoblast, hFOB 1.19, cell lines. The human MCF-7 cell line represents an ER-positive breast cancer model with estrogen, progesterone, and glucocorticoid receptors.^1 While, the human MDA-MB-231 cells correspond to a model of ER-negative breast cancer. Both selected cancer cell lines can be implicated in the development and progress of bone metastases in patients.^40,41 The human fetal hFOB 1.19 cells represent a homogeneous osteoblast-like (non-cancerous) model commonly employed to assess osteoblast differentiation.^42 The cytotoxicity of these materials was evaluated by determining the IC50 and % RCL. […] Similar results were found for MDA-MB-231 and hFOB 1.19 cell lines treated with LET (IC50 >200 μM) at the same time points (Supporting Information).
Cell culture methods. MCF-7 and MDA-MB-231 were incubated employing DMEM media at 37° C. in 5% CO2. The hFOB 1.19 cell lines were incubated using DMEM: F12 at 34° C. in 5% CO2. Cell lines were supplemented using 10% FBS and 1% Pen-Strep. The media was exchanged twice per week. Cell passages were carried out at 80% confluency.
Seeding. Cell lines were seeded in 96 well plates at a density of […] cells/mL; cells were incubated for 24 h before each treatment.
Treatment. Cell lines were treated with 100 μL of BPBPA (0-400 μM), LET (0-200 μM), unloaded and loaded nano-Ca@BPBPA (0.5-50 μM). Control groups were treated with media (DMEM or DMEM: F12) supplemented with 1% Pen-Strep. All cell-based assays were performed after 24, 48, and 72 h of treatment and in triplicate.
AlamarBlue@assay. To determine the cell viability, the media was removed and replaced with 100 μL of 10% AlamarBlue® solution. The 96 well plates were incubated for 4 h before measurements. Then, the fluorescence was assessed at 560 nm of excitation and λmax 590 nm of emission.

A short description of data set [2]: Hydroxyapatite (HA) binding assay of RISE and nano-Ca@RISE. As for the experimental part: Hydroxyapatite (HA) binding assay. For the binding assay of nano-Ca@RISE, 20 mg of hydroxyapatite (HA) were exposed to 3 mL of a nano-Ca@RISE in PBS solution (0.5 mg/mL), for 0-11 days at 37° C. As control groups, RISE and HA, both in PBS, were employed. Samples were collected each day from 11 consecutive days. After each time point, the supernatant was collected and centrifuged (1,500 rpm, 8 min). […]
The capacity of nano-Ca@RISE to bind to the main constituent of the bone microenvironment, HA, under simulated physiological conditions, was evaluated through a binding assay. […]. […] […]. Therefore, a calibration curve of nano-Ca@RISE in PBS was employed for quantification of the nanocrystal's concentration in the supernatant after the binding assay.
For the nano-Ca@RISE binding assay, 20 mg of hydroxyapatite (HA), were added to 3.00 mL of nano-Ca@RISE (0.5 mg/mL) in PBS solution. HA in PBS mixture, and the binding of RISE to HA, were used as control groups. The samples were left for 0-11 days at 37° C. and 300 rpm. As a comparative method, additional binding assay for RISE “as received” was conducted employing the same parameters as for the nanocrystals. The selected time points were: 1, 2, 3, 4, 5, 7, 8, 9, 10, and 11 days. The supernatant was collected after each time point, then centrifuged (1,500 rpm, 8 min), and absorbance measurements were performed at 206 nm to determine the binding percentage of RISE from the nano-Ca@RISE to HA. FIGS. S8.6.1 and S8.6.2 illustrate the binding curves of RISE and nano-Ca@RISE to HA in PBS.

For data set [3] the following is noted: FaSSGF pH 1.60.
For data set [4] the following is noted: PBS pH 7.40.

pIC50: −log10 of the molar value. “And” between values parts separate entries of the source, which are not always exact repeats. Identical values can stand only once. Like-named read-outs stand apart in the source and are kept apart here.

For `N#Cc1ccc(C(c2ccc(C#N)cc2)n2cncn2)cc1` [LET, letrozole], the “% RCL” value in data set [1] (12.5 μM, 72 h) was 99±1%; in data set [1] (50 μM, 24 h), approximately 86%; in data set [1] (50 μM, 48 h), approximately 83%; in data set [1] (50 μM, 72 h), approximately 82%. Moreover, the pIC50 in data set [1] (24 h), in data set [1] (48 h) and in data set [1] (72 h) was less than 3.70 in each case.

In the case of `O=P(O)(O)C(O)(Cc1cccnc1)P(=O)(O)O` [RISE, Monosodium risedronate hemipentahydrate], the “time to reach maximum binding to HA” value in data set [2] (PBS) amounted to 8 days. Further, in data set [2] (PBS pH 7.40, 37 °C, 0-11 days), the “maximum binding to HA” value turned out to be 76%. The “bound to HA” value in data set [2] (PBS pH 7.40, 37 °C, 1 day) is 18% and 17%. In addition, the “time to reach maximum dissolution” value in data set [3] was found to be 1 min; in data set [4] it was 30 min.

The values above are taken from patent US20250296942A1, “Phosphonate-Based Coordination Complexes and Methods of Preparation and Use Thereof” (University of Puerto Rico, priority 2021, published 2025).
